Assay results reported in paper PMC5218480 (PLoS ONE, 2017).

Test system: MV-4-11 cells
Experiment: Gene expression microarray analysis (Affymetrix PrimeView) and GSEA
Assay type: cell-based, human
Parameters: RFU PODN (11730768_x_at) / Fold change /veh PODN (11730768_x_at) / RFU LINC00158 (11744669_a_at) / Fold change /veh LINC00158 (11744669_a_at) / RFU DUSP10 (11751237_a_at) / Fold change /veh DUSP10 (11751237_a_at) / RFU ID3 (11757404_x_at) / Fold change /veh ID3 (11757404_x_at) / RFU PLEKHG5 (11737974_s_at) / Fold change /veh PLEKHG5 (11737974_s_at) / RFU LRRC4B (11730491_at) / Fold change /veh LRRC4B (11730491_at) / RFU GIMAP4 (11747438_a_at) / Fold change /veh GIMAP4 (11747438_a_at) / RFU KRT8 (11758183_x_at) / Fold change /veh KRT8 (11758183_x_at) / RFU CNN1 (11734310_a_at) / Fold change /veh CNN1 (11734310_a_at) / RFU VPS37D (11726825_at) / Fold change /veh VPS37D (11726825_at) / RFU C10orf10 (11716522_x_at) / Fold change /veh C10orf10 (11716522_x_at) / RFU KIR2DL2 /// KIR2DL4 /// KIR2DL5A /// KIR2DL5B /// KIR2DS1 /// KIR2DS2 /// KIR2DS3 /// KIR2DS4 /// KIR3DL3 /// KIR3DL3 /// KIR3DS1 (11738374_at) / Fold change /veh KIR2DL2 /// KIR2DL4 /// KIR2DL5A /// KIR2DL5B /// KIR2DS1 /// KIR2DS2 /// KIR2DS3 /// KIR2DS4 /// KIR3DL3 /// KIR3DL3 /// KIR3DS1 (11738374_at) / RFU C1QL1 (11718748_at) / Fold change /veh C1QL1 (11718748_at) / RFU TMPRSS4 (11747572_a_at) / Fold change /veh TMPRSS4 (11747572_a_at) / RFU HAMP (11756126_x_at) / Fold change /veh HAMP (11756126_x_at) / RFU RNFT2 (11725882_a_at) / Fold change /veh RNFT2 (11725882_a_at) / RFU NR4A2 (11747474_a_at) / Fold change /veh NR4A2 (11747474_a_at) / RFU ABCC12 (11746883_a_at) / Fold change /veh ABCC12 (11746883_a_at) / RFU TMEM136 (11760407_x_at) / Fold change /veh TMEM136 (11760407_x_at) / RFU CLDN22 /// WWC2 (11732394_at) / Fold change /veh CLDN22 /// WWC2 (11732394_at) / RFU HLA-DPB1 (11760878_x_at) / Fold change /veh HLA-DPB1 (11760878_x_at) / RFU SPINT1 (11716480_a_at) / Fold change /veh SPINT1 (11716480_a_at) / RFU GAP43 (11754022_s_at) / Fold change /veh GAP43 (11754022_s_at) / RFU A4GNT (11735810_at) / Fold change /veh A4GNT (11735810_at) / RFU PRB3 (11715151_x_at) / Fold change /veh PRB3 (11715151_x_at) / RFU TUBB4B (11761932_at) / Fold change /veh TUBB4B (11761932_at) / RFU CAPN14 (11732068_a_at) / Fold change /veh CAPN14 (11732068_a_at) / RFU TMCC2 (11721928_a_at) / Fold change /veh TMCC2 (11721928_a_at) / RFU IRGQ (11745062_a_at) / Fold change /veh IRGQ (11745062_a_at) / RFU FAM174B (11720279_a_at) / Fold change /veh FAM174B (11720279_a_at) / RFU TMPRSS4 (11748680_a_at) / Fold change /veh TMPRSS4 (11748680_a_at) / RFU FAM212B (11763350_a_at) / Fold change /veh FAM212B (11763350_a_at) / RFU PLEKHG5 (11743358_a_at) / Fold change /veh PLEKHG5 (11743358_a_at) / RFU ZSCAN30 (11745921_a_at) / Fold change /veh ZSCAN30 (11745921_a_at) / RFU CMKLR1 (11741424_a_at) / Fold change /veh CMKLR1 (11741424_a_at) / RFU LOC101060620 /// MAPK8IP1 (11723275_at) / Fold change /veh LOC101060620 /// MAPK8IP1 (11723275_at) / RFU SPTSSB (11747773_x_at) / Fold change /veh SPTSSB (11747773_x_at) / RFU PRSS12 (11739890_at) / Fold change /veh PRSS12 (11739890_at) / RFU BIN1 (11741810_x_at) / Fold change /veh BIN1 (11741810_x_at) / RFU WNT11 (11732464_a_at) / Fold change /veh WNT11 (11732464_a_at) / RFU C10orf10 (11716521_a_at) / Fold change /veh C10orf10 (11716521_a_at) / RFU C5orf56 (11738089_at) / Fold change /veh C5orf56 (11738089_at) / RFU CYB561 (11721691_x_at) / Fold change /veh CYB561 (11721691_x_at) / RFU ANKRD19P (11752326_a_at) / Fold change /veh ANKRD19P (11752326_a_at) / RFU OR2T12 /// OR2T33 /// OR2T8 (11738714_s_at) / Fold change /veh OR2T12 /// OR2T33 /// OR2T8 (11738714_s_at) / RFU VCAN (11748164_a_at) / Fold change /veh VCAN (11748164_a_at) / RFU JSRP1 (11732532_at) / Fold change /veh JSRP1 (11732532_at) / RFU KRTAP10-11 (11738290_x_at) / Fold change /veh KRTAP10-11 (11738290_x_at) / RFU MYO3A (11730013_a_at) / Fold change /veh MYO3A (11730013_a_at) / RFU EBF3 (11725865_a_at) / Fold change /veh EBF3 (11725865_a_at) / RFU CAMK2N1 (11719241_x_at) / Fold change /veh CAMK2N1 (11719241_x_at) / RFU C5orf56 (11738088_a_at) / Fold change /veh C5orf56 (11738088_a_at) / RFU OLFML3 (11715873_a_at) / Fold change /veh OLFML3 (11715873_a_at) / RFU LOC100653217 /// NTM (11731650_a_at) / Fold change /veh LOC100653217 /// NTM (11731650_a_at) / RFU MAPK11 (11762145_a_at) / Fold change /veh MAPK11 (11762145_a_at) / RFU FIZ1 (11724087_x_at) / Fold change /veh FIZ1 (11724087_x_at) / RFU OASL (11726364_x_at) / Fold change /veh OASL (11726364_x_at) / RFU SOX15 (11748057_x_at) / Fold change /veh SOX15 (11748057_x_at) / RFU CD79A (11719716_a_at) / Fold change /veh CD79A (11719716_a_at) / RFU HIST1H1D (11736915_at) / Fold change /veh HIST1H1D (11736915_at) / RFU CASKIN2 (11723855_a_at) / Fold change /veh CASKIN2 (11723855_a_at) / RFU LOC730098 (11760151_x_at) / Fold change /veh LOC730098 (11760151_x_at) / RFU OR4N2 (11742367_at) / Fold change /veh OR4N2 (11742367_at) / RFU PRRT2 (11749266_a_at) / Fold change /veh PRRT2 (11749266_a_at) / RFU SNX32 (11753110_a_at) / Fold change /veh SNX32 (11753110_a_at) / RFU CDHR5 (11726645_a_at) / Fold change /veh CDHR5 (11726645_a_at) / RFU RCAN1 (11760418_a_at) / Fold change /veh RCAN1 (11760418_a_at) / RFU FAM167A (11723789_a_at) / Fold change /veh FAM167A (11723789_a_at) / RFU FAM26E (11764081_at) / Fold change /veh FAM26E (11764081_at) / RFU ISYNA1 (11749810_s_at) / Fold change /veh ISYNA1 (11749810_s_at) / RFU ACY1 (11761880_at) / Fold change /veh ACY1 (11761880_at) / RFU 11764098_at / Fold change /veh 11764098_at / RFU SAMD14 (11745864_x_at) / Fold change /veh SAMD14 (11745864_x_at) / RFU NPB (11741838_a_at) / Fold change /veh NPB (11741838_a_at) / RFU TMPRSS6 (11731388_a_at) / Fold change /veh TMPRSS6 (11731388_a_at) / RFU KRTAP10-2 (11738614_at) / Fold change /veh KRTAP10-2 (11738614_at) / RFU ARHGAP8 /// PRR5-ARHGAP8 (11727945_x_at) / Fold change /veh ARHGAP8 /// PRR5-ARHGAP8 (11727945_x_at) / RFU KRTAP5-7 /// NADSYN1 (11734609_at) / Fold change /veh KRTAP5-7 /// NADSYN1 (11734609_at) / RFU RASL12 (11751679_a_at) / Fold change /veh RASL12 (11751679_a_at) / RFU CDKN2B (11736163_a_at) / Fold change /veh CDKN2B (11736163_a_at) / RFU PRF1 (11729649_at) / Fold change /veh PRF1 (11729649_at) / RFU, ZNF638 /// ZNF638-IT1 / Fold change vs veh, ZNF638 /// ZNF638-IT1 / RFU, PANK3 / Fold change vs veh, PANK3 / RFU, SH3YL1 / Fold change vs veh, SH3YL1 / RFU, ZEB2 / Fold change vs veh, ZEB2 / RFU, NRIP1 / Fold change vs veh, NRIP1 / RFU, PTTG1IP / Fold change vs veh, PTTG1IP / RFU, CAPN2 / Fold change vs veh, CAPN2 / RFU, MED14 / Fold change vs veh, MED14 / RFU, SNORA58 / Fold change vs veh, SNORA58 / RFU, C1orf63 / Fold change vs veh, C1orf63 / RFU, LRRFIP1 / Fold change vs veh, LRRFIP1 / RFU, NDUFAF7 / Fold change vs veh, NDUFAF7 / RFU, SLC12A2 / Fold change vs veh, SLC12A2 / RFU, IBTK / Fold change vs veh, IBTK / RFU, ESF1 / Fold change vs veh, ESF1 / Fold change vs veh, TMEM50B / RFU, TAOK1 / Fold change vs veh, TAOK1 / RFU, ACBD3 / Fold change vs veh, ACBD3 / RFU, TMA16 / Fold change vs veh, TMA16 / RFU, RWDD3 / Fold change vs veh, RWDD3 / RFU, BCAT1 / Fold change vs veh, BCAT1 / RFU, EDEM3 / Fold change vs veh, EDEM3 / RFU, TMEM33 / Fold change vs veh, TMEM33 / RFU, WDR75 / Fold change vs veh, WDR75 / RFU, AHCTF1 / Fold change vs veh, AHCTF1 / RFU, TFRC / Fold change vs veh, TFRC / RFU, ZDHHC17 / Fold change vs veh, ZDHHC17 / RFU, NOM1 / Fold change vs veh, NOM1 / RFU, ARL8B / Fold change vs veh, ARL8B / RFU, ZBTB11 / Fold change vs veh, ZBTB11 / RFU, TAMM41 / Fold change vs veh, TAMM41 / RFU, KIAA1704 /// LOC100996395 / Fold change vs veh, KIAA1704 /// LOC100996395 / RFU, ING1 / Fold change vs veh, ING1 / RFU, TRMT61B / Fold change vs veh, TRMT61B / RFU, FUBP3 / Fold change vs veh, FUBP3 / RFU, TP53 / Fold change vs veh, TP53 / RFU, TNKS2 / Fold change vs veh, TNKS2 / RFU, ZFP14 / Fold change vs veh, ZFP14 / RFU, ACTR2 / Fold change vs veh, ACTR2 / RFU, PPP3R1 / Fold change vs veh, PPP3R1 / RFU, PIK3R1 / Fold change vs veh, PIK3R1 / RFU, HNRNPA1 / Fold change vs veh, HNRNPA1 / RFU, RNF170 / Fold change vs veh, RNF170 / RFU, ZNF28 / Fold change vs veh, ZNF28 / RFU, RNGTT / Fold change vs veh, RNGTT / RFU, OGT / Fold change vs veh, OGT / RFU, BRD1 / Fold change vs veh, BRD1 / RFU, MARS / Fold change vs veh, MARS / RFU, ZNF655 / Fold change vs veh, ZNF655 / RFU, FAHD1 / Fold change vs veh, FAHD1 / RFU, BDP1 / Fold change vs veh, BDP1 / RFU, LRRCC1 / Fold change vs veh, LRRCC1 / RFU, ARID1A / Fold change vs veh, ARID1A / RFU, ZNF146 / Fold change vs veh, ZNF146 / RFU, ZNF330 / Fold change vs veh, ZNF330 / RFU, GPN3 / Fold change vs veh, GPN3 / RFU, C9orf123 / Fold change vs veh, C9orf123 / RFU, N4BP2L2 / Fold change vs veh, N4BP2L2 / RFU, ARFIP1 / Fold change vs veh, ARFIP1 / RFU, FAM179B / Fold change vs veh, FAM179B / RFU, BCL10 / Fold change vs veh, BCL10 / RFU, UHRF1BP1L / Fold change vs veh, UHRF1BP1L / RFU, BET1 / Fold change vs veh, BET1 / RFU, CNOT2 / Fold change vs veh, CNOT2 / RFU, ZNF268 / Fold change vs veh, ZNF268 / Fold change vs veh, ZNF507 / RFU, DGCR2 / Fold change vs veh, DGCR2 / RFU, WDSUB1 / Fold change vs veh, WDSUB1 / Fold change vs veh, HSP90B1 /// MIR3652 / RFU, ADSS / Fold change vs veh, ADSS / RFU, GK / Fold change vs veh, GK / RFU, ZNF148 / Fold change vs veh, ZNF148 / RFU, TAF9 / Fold change vs veh, TAF9 / RFU, SLC1A5 / Fold change vs veh, SLC1A5 / RFU, SLMO2 / Fold change vs veh, SLMO2 / RFU, ABCC4 / Fold change vs veh, ABCC4 / RFU, LOC101060439 /// RAP1B / Fold change vs veh, LOC101060439 /// RAP1B / RFU, RFX7 / Fold change vs veh, RFX7 / RFU, GTPBP10 / Fold change vs veh, GTPBP10 / RFU, CNEP1R1 / Fold change vs veh, CNEP1R1 / RFU, BIVM-ERCC5 /// ERCC5 / Fold change vs veh, BIVM-ERCC5 /// ERCC5 / RFU, ILF3 / Fold change vs veh, ILF3 / RFU 11762660_at / Fold change /veh 11762660_at / RFU VCAN (11757783_s_at) / Fold change /veh VCAN (11757783_s_at) / RFU DDX43 (11728927_at) / Fold change /veh DDX43 (11728927_at) / RFU KRT8 (11758188_x_at) / Fold change /veh KRT8 (11758188_x_at) / RFU NKD1 (11759106_at) / Fold change /veh NKD1 (11759106_at) / RFU SRD5A1 (11742802_a_at) / Fold change /veh SRD5A1 (11742802_a_at) / RFU TPSAB1 /// TPSB2 (11721975_s_at) / Fold change /veh TPSAB1 /// TPSB2 (11721975_s_at) / RFU GSTM3 (11746129_a_at) / Fold change /veh GSTM3 (11746129_a_at) / RFU IL23R (11737362_x_at) / Fold change /veh IL23R (11737362_x_at) / RFU TMEM51 (11727254_a_at) / Fold change /veh TMEM51 (11727254_a_at) / RFU PIWIL2 (11732686_x_at) / Fold change /veh PIWIL2 (11732686_x_at) / RFU ORM1 (11744905_x_at) / Fold change /veh ORM1 (11744905_x_at) / RFU CCDC152 (11743942_at) / Fold change /veh CCDC152 (11743942_at) / RFU ECM1 (11717891_a_at) / Fold change /veh ECM1 (11717891_a_at) / RFU IL23R (11748794_a_at) / Fold change /veh IL23R (11748794_a_at) / RFU TNFAIP8L3 (11732012_x_at) / Fold change /veh TNFAIP8L3 (11732012_x_at) / RFU MBOAT4 (11741988_at) / Fold change /veh MBOAT4 (11741988_at) / RFU 11764193_at / Fold change /veh 11764193_at / RFU TMEM53 (11763286_at) / Fold change /veh TMEM53 (11763286_at) / RFU MAGEB2 (11727129_at) / Fold change /veh MAGEB2 (11727129_at) / RFU TMEM200A (11744735_a_at) / Fold change /veh TMEM200A (11744735_a_at) / RFU CCDC152 (11751479_a_at) / Fold change /veh CCDC152 (11751479_a_at) / RFU FAM211A (11726209_a_at) / Fold change /veh FAM211A (11726209_a_at) / RFU RGS16 (11746705_a_at) / Fold change /veh RGS16 (11746705_a_at) / RFU VCAN (11755009_s_at) / Fold change /veh VCAN (11755009_s_at) / RFU RHOB (11743442_s_at) / Fold change /veh RHOB (11743442_s_at) / RFU RGS16 (11720943_a_at) / Fold change /veh RGS16 (11720943_a_at) / RFU RGS16 (11720944_at) / Fold change /veh RGS16 (11720944_at) / RFU, VPS4B / Fold change vs veh, VPS4B / RFU, CREB1 / Fold change vs veh, CREB1 / RFU, DNAJC13 / Fold change vs veh, DNAJC13 / RFU, GNAQ / Fold change vs veh, GNAQ / RFU, CDK5R1 / Fold change vs veh, CDK5R1 / RFU, ZRANB3 / Fold change vs veh, ZRANB3 / RFU, CUL4A / Fold change vs veh, CUL4A / RFU, CCNY / Fold change vs veh, CCNY / RFU, UFL1 / Fold change vs veh, UFL1 / RFU, COG3 / Fold change vs veh, COG3 / RFU, DIAPH2 / Fold change vs veh, DIAPH2 / RFU, SKA2 / Fold change vs veh, SKA2 / RFU, AFF3 / Fold change vs veh, AFF3 / RFU, LMF1 / Fold change vs veh, LMF1 / RFU, IPO11 / Fold change vs veh, IPO11 / RFU, DFFB / Fold change vs veh, DFFB / RFU, FOXP1 / Fold change vs veh, FOXP1 / RFU, CARD8 / Fold change vs veh, CARD8 / RFU, STRN3 / Fold change vs veh, STRN3 / RFU, ADK / Fold change vs veh, ADK / RFU, RASSF2 / Fold change vs veh, RASSF2 / RFU, WIPF1 / Fold change vs veh, WIPF1 / RFU, LARP1B / Fold change vs veh, LARP1B / RFU, RASA1 / Fold change vs veh, RASA1 / RFU, RB1 / Fold change vs veh, RB1 / RFU, PPFIA1 / Fold change vs veh, PPFIA1 / RFU, MAT2A / Fold change vs veh, MAT2A / RFU, CCT5 / Fold change vs veh, CCT5 / RFU, WDR92 / Fold change vs veh, WDR92 / RFU, CUX1 / Fold change vs veh, CUX1 / RFU, TTC7A / Fold change vs veh, TTC7A / RFU, TMEM135 / Fold change vs veh, TMEM135 / RFU, DEPTOR / Fold change vs veh, DEPTOR / RFU, CPM / Fold change vs veh, CPM / RFU, DNAJB6 / Fold change vs veh, DNAJB6 / RFU, CACNA2D3 / Fold change vs veh, CACNA2D3 / RFU, DTX4 / Fold change vs veh, DTX4 / RFU, TFCP2 / Fold change vs veh, TFCP2 / RFU, GMCL1 /// GMCL1P1 / Fold change vs veh, GMCL1 /// GMCL1P1 / RFU, AEBP2 / Fold change vs veh, AEBP2 / RFU, SNHG1 /// SNORD22 /// SNORD25 /// SNORD26 /// SNORD27 /// SNORD28 /// SNORD29 /// SNORD31 / Fold change vs veh, SNHG1 /// SNORD22 /// SNORD25 /// SNORD26 /// SNORD27 /// SNORD28 /// SNORD29 /// SNORD31 / Fold change (Aza/veh), C12orf56 (ProbeSet 11735607_a_at) / Fold change (ACY-1035/veh), C12orf56 (ProbeSet 11735607_a_at) / Fold change (Aza/veh), FGFR1OP (ProbeSet 11751329_s_at) / Fold change (ACY-1035/veh), FGFR1OP (ProbeSet 11751329_s_at) / Fold change (Aza/veh), VPS36 (ProbeSet 11739960_a_at) / Fold change (ACY-1035/veh), VPS36 (ProbeSet 11739960_a_at) / RFU SYPL1 (11715823_x_at) / Fold change /veh SYPL1 (11715823_x_at) / RFU IGFBP7 (11715501_s_at) / Fold change /veh IGFBP7 (11715501_s_at) / RFU REEP3 (11722064_at) / Fold change /veh REEP3 (11722064_at) / RFU IGLL1 (11728026_x_at) / Fold change /veh IGLL1 (11728026_x_at): dose or concentration left out as unconfirmed
Conditions: MV-4-11 cells, 48 hours

Nc1ccc(-c2cccs2)cc1NC(=O)c1ccc2c(c1)cc(C1CC1)n2CCN1CCOCC1 [ACY-1035]
RFU SYPL1 (11715823_x_at): 565.47 RFU
